What all share (type): cell-based
For assay [1], the system named is Enterococcus faecalis ATCC 29212. Description: MIC against Enterococcus faecalis ATCC 29212. The settings on record: Enterococcus faecalis, ATCC29212; ATCC 29212; Table 5; read-out: MIC against Enterococcus faecalis (Activity). The method in brief: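 MIC measured by broth microdilution or agar dilution following CLSI guidelines (M7-A7 for aerobes, M11-A6 for anaerobes).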

Assay [2] concerns Enterococcus faecalis (VRE) ATCC 51299. The experiment in a line: MIC against Enterococcus faecalis (VRE) ATCC 51299. The settings on record: Enterococcus faecalis (VRE) ATCC 51299; read-out: MIC Activity.
The test system of assay [3] is Enterococcus faecium (VRE) ATCC 700221. Description: MIC against Enterococcus faecium (VRE) ATCC 700221. To be noted: Enterococcus faecium (VRE) ATCC 700221; read-out: MIC Activity.
In assay [4] the test system is Enterococcus faecium (VSE) ATCC 19434. Description: MIC against Enterococcus faecium (VSE) ATCC 19434. The settings on record: ATCC19434; Enterococcus faecium (VSE) ATCC 19434; read-out: MIC Activity.
Assay [5] concerns Moraxella catarrhalis ATCC 25240. The experiment in a line: MIC against Moraxella catarrhalis ATCC 25240. To be noted: ATCC25240; Moraxella catarrhalis ATCC 25240; read-out: MIC Activity.
The subject of assay [6] is Staphylococcus aureus ATCC 29213. Description: MIC against Staphylococcus aureus ATCC 29213. The settings on record: ATCC29213; Staphylococcus aureus ATCC 29213; read-out: MIC Activity.
The subject of assay [7] is Staphylococcus epidermidis ATCC 12228. The experiment in a line: MIC against Staphylococcus epidermidis ATCC 12228. To be noted: ATCC12228; Staphylococcus epidermidis ATCC 12228; read-out: MIC Activity.
For assay [8], the system named is Staphylococcus haemolyticus ATCC 29970. Description: MIC against Staphylococcus haemolyticus ATCC 29970. The settings on record: ATCC29970; Staphylococcus haemolyticus ATCC 29970; read-out: MIC Activity.
Assay [9] has as its system Streptococcus mutans ATCC 35668. The experiment in a line: MIC against Streptococcus mutans ATCC 35668. The settings on record: ATCC35668; Streptococcus mutans ATCC 35668; read-out: MIC Activity.
In assay [10] the test system is Streptococcus pyogenes ATCC 51339. The experiment in a line: MIC against Streptococcus pyogenes ATCC 51339. To be noted: ATCC51339; Streptococcus pyogenes ATCC 51339; read-out: MIC Activity.
Assay [11] has as its system Streptococcus agalactiae ATCC 13813. The experiment in a line: MIC against Streptococcus agalactiae ATCC 13813. To be noted: ATCC13813.
The test system of assay [12] is Streptococcus pneumoniae ATCC 49619. Description: MIC against Streptococcus pneumoniae ATCC 49619. The settings on record: ATCC49619.

In brackets after ≈: the same amount, converted by molar mass.

For orientation: MIC means the lowest concentration found to suppress growth.

For `CCNC(=O)Nc1nc2cc(-c3cccnc3)nc(-c3cccnc3)c2s1` [Example 180, 1-(4,6-Di-pyridin-3-yl-thiazolo[5,4-c]pyridin-2-yl)-3-ethyl-urea], the MIC in assay [1] was in the range of 0.25 to 1 mg/L (≈ 0.664 to 2.66 µM); in [2], 0.25 to 1 mg/L (≈ 0.664 to 2.66 µM); in [3], 2 to 16 mg/L (≈ 5.31 to 42.5 µM); in [4], 2 to 16 mg/L (≈ 5.31 to 42.5 µM); in [5], 0.25 to 1 mg/L (≈ 0.664 to 2.66 µM); in [6], 2 to 16 mg/L (≈ 5.31 to 42.5 µM). In addition, the MIC in [7] fell in the range of 0.25 to 1 mg/L (≈ 0.664 to 2.66 µM); in assay [8], 0.25 to 1 mg/L (≈ 0.664 to 2.66 µM); in assay [9], 0.25 to 1 mg/L (≈ 0.664 to 2.66 µM); in assay [10], 2 to 16 mg/L (≈ 5.31 to 42.5 µM); in assay [11], 0.25 to 1 mg/L (≈ 0.664 to 2.66 µM); in assay [12] it was 0.25 to 1 mg/L (≈ 0.664 to 2.66 µM).

The values are drawn from patent publication US8481544B2, “Antibacterial compositions” (Biota Europe Limited, priority 2006, dated 2013).
